The test system of one data set is MC38 tumors. The data set can be described thus: MC38 tumor growth after local radiation in mice. Type of data set: in vivo, mouse. Conditions: 20 Gy, 10 μg intratumorally on day 2 and 6 after radiation, FIG. 21A, 21B. The method, then:
(§1) 1×10^6 MC38 tumor cells were subcutaneously injected into the flank of mice. Tumor volumes were measured along three orthogonal axes (a, b, and c) and calculated as tumor volume=abc/2. Tumors were allowed to grow for 9-10 days and treated by local radiation (Deng et al., 2014). Briefly, the body was protected with a lead cover and the tumor was exposed, allowing local radiation. Tumors were irradiated using RS-2000 Biological Irradiator (RAD SOURCE) at the dose of 20 Gy with 160 kV and 25 mA. For type I IFN blockade experiments, 200 μg anti-IFAR1 mAb was intratumorally injected on day 0 and 2 after radiation. For HMGB-1 blockade experiments, 200 μg anti-HMGB-1 mAb (clone 3B1, generated by inventors) was administered i.p. on day 0 and 3 after radiation. For CD8^+ T cell depletion experiments, […] anti-CD8 mAb (Clone 2.43, BioXCell) was delivered 5 times by i.p. injection every three days starting one day before radiation. For exogenous IFN-β treatment experiments, 1×10^10 viral particles of Ad-IFN-β (Burnette, B., et al., The Efficacy of Radiotherapy Relies upon Induction of Type I Interferon-Dependent Innate and Adaptive Immunity, Cancer Res Apr. 1, 2011 71; 2488; (doi: 10.1158/0008-5472.CAN-10-2820)) were intratumorally administered on day 2 after radiation. Ad-null was used as negative control. […]

Data set [1] concerns tumor-specific CD8+ T cells. The data set can be described thus: ELISPOT of tumor-specific IFN-γ-secreting CD8+ T cells from tumor draining lymph nodes after radiation. In kind it is in vivo, mouse. The method, then: as §1
For a further data set, the system named is BMDCs. The data set can be described thus: BMDC cross-priming of 2C CD8+ T cells after stimulation with irradiated MC38-SIY tumor cells (IFN-γ ELISPOT). Type of data set: cell-based, mouse. The method, then:
Single-cell suspensions of bone marrow cells were obtained from C57BL/6J, STING^−/− and IRF3^−/− mice. Bone marrow from cGAS^−/− mice was kindly provided by Dr. Zhijian J. Chen of University of Texas Southwestern Medical Center, Dallas. The cells were placed in 10 cm petri dish and cultured in RPMI-1640 medium containing 10% fetal bovine serum (DENVILLE), supplemented with 20 ng/ml GM-CSF. Fresh media with GM-CSF was added into culture on day 3. BMDCs (bone marrow-derived dendritic cells) were harvest for stimulation assay on day 7. 8×10^6 MC38-SIY^hi cells were plated into 10 cm cell culture dishes overnight, and then pretreated with 40 Gy and incubated for 5 hours. BMDCs were added and co-cultured with MC38-SIY^hi cells at the ratio of 1:1 in the presence of fresh GM-CSF for additional 8 hours. Subsequently purified CD11c cells with EasySep™ Mouse CD11c Positive Selection Kit II (STEMCELL) were incubated with isolated CD8^+ T cells from naive 2 C mice for three days. For the bypassing assay, 10 ng/ml murine IFN-β was added in the co-culture of BMDCs and tumor cells, or 100 μg/ml DMXAA was added into isolated CD11c^+ cells with additional 3 h incubation. For IFN-β detection, BMDCs were co-cultured with tumor cells at the ratio of 1:1 for additional 8 hours, and 1×10^6 cells/ml purified CD11c^+ cells were seed into 96-well plates for 48 hours.
For bone-marrow CD11c^+ cells functional assay, 2×10^4 purified CD11c^+ cells with were incubated with isolated CD8^+ T cells from naive 2 C mice with EasySep™ Mouse CD8a Positive Selection Kit (STEMCELL) for three days at the ratio of 1:10. For tumor-specific CD8^+ T cells functional assay, eight days after radiation, tumor DLNs were removed and CD8^+ T cells were purified. MC38 tumor cells were exposed to 20 ng/ml murine IFN-γ for 24 hr prior to plating with purified CD8^+ T. 2×10^5 CD8^+ T cells were incubated with MC38 at the ratio of 10:1 for 48 hours. 96-well HTS-IP plate (Millipore) was pre-coated with 2.5 μg/ml anti-IFN-γ antibody (clone R4-6A2, BD Pharmingen) overnight at 4° C. […]

The next data set concerns IFNβ promoter. Kind of data set: IFNβ promoter dual-luciferase reporter assay (IFNβ-Luc / pRL-SV40) in HEK293 cells. Type of data set: cell-based, human. The note with it: versus shNT, FIG. 6A. The text has this:
To measure IFNβ promoter activity, HEK293 cells were transiently co-transfected using Fugene (Roche) with pGL3-Ifnβ-Luc (Lin R, Genin P, Mamane Y, & Hiscott J (2000) Selective DNA binding and association with the CREB binding protein coactivator contribute to differential activation of alpha/beta interferon genes by interferon regulatory factors 3 and 7. Molecular and cellular biology 20(17):6342-6353) and an expression plasmid carrying the Renilla luciferase gene driven by the SV40 promoter (Promega). […] The following day, cells were irradiated at indicated dose and collected at indicated time in passive lysis buffer (Promega). Firefly and Renilla luciferase activities were measured using a dual-luciferase assay system (Promega). For siRNAs experiments, siRNA against LGP2 (see above) or non-targeting (Dharmacon) were transfected with RNAimax 24 h prior to transfection of luciferase/Renilla plasmids. Mean luciferase values were normalized and quantified from duplicate runs for each of at least three separate experiments.
We next assessed the role of LGP2 in regulating the IR-induced IFNβ response. HEK293 cells were transduced with lentiviral shRNA to stably reduce the levels of LGP2 or control non-targeting (shNT). Stably transduced cells were co-transfected with IFNβ-Luc and pRL-SV40, mock-treated or exposed to 6 or 12 Gy and collected 72 hrs after IR.
On the technique in general: Reporter assays use an easily measured gene product as a stand-in for the process of interest.

As to `Nc1nc2c(ncn2[C@@H]2O[C@@H]3COP(=O)(O)O[C@H]4[C@@H](O)[C@H](n5cnc6c(N)ncnc65)O[C@@H]4COP(=O)(O)O[C@@H]2[C@@H]3O)c(=O)[nH]1` [2′3′-cGAMP, cyclic [G(2′,5′)pA(3′,5′)p]], the “synergy with radiation on tumor burden” value in the data set on MC38 tumors (STING−/− mice) is on record as “abrogated”. The “tumor burden, combination with radiation” value with MC38 tumors (WT mice, versus either treatment alone) is “effectively reduce tumor burden”. Besides, the “antitumor CD8+ T cell response induced by the combination with radiation” value in data set [1] (STING−/− host, FIG. 21D) is “dampened”. Besides, in data set [1] (WT mice, 10 μg intratumorally on day 2 after 20 Gy, DLNs day 8, versus radiation or 2′3′-cGAMP alone, FIG. 21C), the “number of tumor-specific IFN-γ-producing CD8+ T cells in DLNs, combination with radiation” value was “significantly increased”.

For `Cc1ccc2c(=O)c3cccc(CC(=O)O)c3oc2c1C` [DMXAA], the “function of STING−/− BMDCs (cross-priming of CD8+ T cells)” value in the data set on BMDCs (STING−/− BMDCs stimulated with irradiated tumor cells, 10 ng/ml IFN-β or 100 μg/ml DMXAA, FIG. 18C) is listed as “fails to rescue”. In the data set with BMDCs (cGAS−/− BMDCs stimulated with irradiated tumor cells, 10 ng/ml IFN-β or 100 μg/ml DMXAA, FIG. 19D), the “function of cGAS−/− BMDCs (cross-priming of CD8+ T cells)” value was “restored”.

For the molecule “LGP2 shRNA: lentiviral pLKO.1 shRNA against LGP2, SEQ ID NO:3 ATTCTTGCGGTCATCGAACAG, Thermo Scientific”, the “IR-induced IFNβ reporter activity” value in the data set with IFNβ promoter (HEK293, 6 or 12 Gy, 72 hrs after IR) is reported as “greatly increased”. Also, the IFNβ reporter activity result in the data set with IFNβ promoter (HEK293, mock-treated) is “significant increase”.

Take “siRNA-cGAS: Mission siRNA against murine cGAS, 5′-GAGGAAAUCCGCUGAGUCAdTdT-3′ (SEQ ID NO:8), Sigma (GAGGAAAUCCGCUGAGUCADTDT; dTdT 3' overhang, further chemistry not given here)”: in the data set on BMDCs (BMDCs transfected with 50 nM siRNA, versus non-target control, stimulated with irradiated tumor cells, FIG. 19B), the “function of DCs (cross-priming of CD8+ T cells)” value was “greatly diminished”.

For the origin of these results see patent publication US10421971B2, “Anti-tumor therapy” (The University of Chicago, priority 2014, dated 2019).
